Data reported in patent US20120071475A1, “UREA DERIVATIVES HAVING PI3K-INHIBITING ACTIVITY” (SHIONOGI & CO., LTD., priority 2009, published 2012).

Experiments:
PI3Kγ = PI3Kγ (Homo sapiens, UniProt P48736); assay: PI3Kγ inhibitory activity (PI3-kinase HTRF assay, inhibition ratio); assay type: biochemical; details: 0.5 h, compound at 10 μmol/L; read-out: PI3Kg Inhibition Ratio % (10 μM)
Description: For each compound synthesized in the above Examples, PI3Kγ inhibitory activity was measured.
The PI3Kγ inhibitory activity of a compound was evaluated using PI3-kinase HTRF™ assay (Millipore) according to the following procedure:
To each well of a testing plate, 5 μL of a compound solution containing 10% DMSO (40 μmol/L as the concentration of the compound), 5 μL of a substrate solution (40 μmol/L phosphatidylinositol (4,5)-bisphosphate, 20 mmol/L MgCl2, 10 mmol/L DTT), and 5 μL of an enzyme solution (80 μg/mL PI-3 kinase y, 10 mmol/L MgCl2, 5 mmol/L DTT) were added, and then allowed to stand for 10 minutes.
Then, 5 μL of a reaction solution (40 μmol/L ATP, 10 mmol/L MgCl2, 5 mmol/L DTT) was added thereto. After reacting for 30 minutes at room temperature, 5 μL of a solution containing EDTA and biotinylated phosphatidylinositol (3,4,5)-triphosphate was added to quench the reaction.
5 μL of a detection reagent containing a europium-labeled anti-GST antibody, the GST-tagged PH domain, and allophycocyanin-labeled streptavidin was added thereto. After 18 hours, HTRF (excitation wavelength: 330 nm, measured wavelengths: 620 nm and 665 nm) was measured.
HTRF ratio was defined as the value obtained by dividing the amount of fluorescence obtained at the measured wavelength 665 nm by the amount of fluorescence obtained at 620 nm. The HTRF ratio in the absence of a compound was defined as 100% activity and the HTRF ratio in the absence of PI-3 kinase y was defined as 0% activity to calculate an inhibition ratio, which was defined as the PI3Kγ inhibitory activity of a compound at 10 μmol/L.

hERG channel (IKr) = molecular target: T1, hERG channel (IKr) (Homo sapiens, UniProt Q12809); assay: hERG test (whole-cell patch-clamp, IKr in HEK293 cells); assay type: cell-based; details: human, HEK293 cells expressing hERG channel, pH 7.4, inhibition of maximum tail current (IKr), compound 1 μM
T1 construct: expressed in transfected cells; host or cells: HEK293
From the text: For the purpose of risk evaluation of QT interval extension of electrocardiogram, the activity on delayed rectification K^+ current (IKr), which plays an important role in a cardiac ventricle repolarization process, was examined using the HEK293 cell that was made to express human ether-a-go-go related gene (hERG) channel.
Using an automatic patch-clamp system (PatchXpress 7000A, Axon Instruments Inc.), by a whole-cell patch-clamp method, after the cell was maintained at a membrane potential of −80 mV, IKr induced upon applying depolarizing stimulation of +50 mV for 2 seconds and further applying repolarizing stimulation of −50 mV for 2 seconds was recorded. After generated electric current became stable, a test substance dissolved at an intended concentration in extracellular fluid (137 mmol/L NaCl, 4 mmol/L KCl, 1.8 mmol/L CaCl2.2H2O, 1 mmol/L MgCl2.6H2O, 10 mmol/L glucose, 10 mmol/L HEPES (4-(2-hydroxyethyl)-1-piperazineethanesulfonic acid), pH=7.4) was applied to the cell for 10 minutes under room temperature condition. From the obtained IKr, the absolute value of the maximum tail current was measured using analysis software (DataXpress ver. 1, Molecular Devices Corporation) and the value of the electric current in a maintained membrane potential as baseline. Moreover, an inhibition ratio for the maximum tail current prior to the application of the test substance was calculated and then compared with a group of media-application (0.1% dimethylsulfoxide solution) to evaluate influence of the test substance on IKr.

CYP3A4 = molecular target: T2, CYP3A4 (Homo sapiens, UniProt P08684); assay: CYP3A4 fluorescence MBI test; assay type: in vitro ADME; details: difference in IC50 with 0 or 30 minutes pre-reaction; CYP3A4 expressed in E. coli, substrate 7-BFC
T2 construct: host or cells: E. coli
Description: The CYP3A4 fluorescence MBI test is a test to examine the enhancement of CYP3A4 inhibition of a compound by a metabolic reaction. The test was performed using as an index, a reaction to produce a metabolite 7-hydroxytrifluoromethylcoumarin (HFC) which emits fluorescence, in which CYP3A4 expressed in E. coli was used as an enzyme and 7-benzyloxytrifluoromethylcoumarin (7-BFC) is debenzylated by CYP3A4 enzyme.
The reaction conditions are as follows: substrate: 5.6 μmol/L 7-BFC; pre-reaction time; 0 or 30 minutes; reaction time: 15 minutes; reaction temperature: 25° C. (room temperature); content of CYP3A4 (an enzyme expressed in E. coli): […] at the time of a pre-reaction and […] (when diluted 10 times) at the time of a reaction; the concentrations of a test drug: 0.625, 1.25, 2.5, 5, 10, and 20 μmol/L (6 points).
In a 96-well plate, an enzyme solution and a test drug solution were added as a pre-reaction solution into K-Pi buffer solution (pH 7.4) in the aforementioned ratio. A portion thereof was transferred to another 96-well plate to be diluted ten times with a substrate and a K-Pi buffer solution. A coenzyme, NADPH, was then added to start a reaction, which is the index (this is without a pre-reaction). After reacting for a predetermined time, 4:1 of acetonitrile: 0.5 mol/L Tris (trishydroxyaminomethane) was added to quench the reaction. To the remaining pre-reaction solution, NADPH was added to start a pre-reaction (this is with a pre-reaction). After pre-reacting for a predetermined time, a portion thereof was transferred to another plate to be diluted ten times with a substrate and K-Pi buffer solution, and thereby the index reaction is started. After reacting for a predetermined time, 4:1 of acetonitrile:0.5 mol/L Tris (trishydroxyaminomethane) was added to quench the reaction. For each plate in which the index reaction was carried out, the fluorescence value of a metabolite 7-HFC was measured with a fluorescent plate reader (Ex=420 nm, Em=535 nm).
The case wherein only DMSO (a solvent which dissolved a drug) was added to a reaction system was defined as a control (100%). When a test drug solution was added, the remaining activity (%) at each concentration was calculated, and then IC50 was calculated with a concentration and an inhibition ratio by an inverse estimation using a logistic model. When the difference in IC50 value is 5 μmol/L or more, the compound is shown as (+). When 3 μmol/L or less, the compound is shown as (−).

[1] = Metabolic stability test (pooled human liver microsome); assay type: in vitro ADME; details: percentage of test compound remained after 30 minutes, pooled human liver microsome 0.5 mg protein/mL, 1 mmol/L NADPH, 37° C., compound 0.5 μM
Description: After a subject compound was reacted for a certain time using a pooled human liver microsome commercially available, a reacted sample and an unreacted sample are compared to calculate a survival ratio, and then the degree of metabolism in the liver was evaluated.
0.2 mL of a buffer solution (50 mmol/L of Tris-HCl in pH 7.4, 150 mmol/L of potassium chloride, and 10 mmol/L of magnesium chloride) containing a human liver microsome of 0.5 mg protein/mL was reacted in the presence of 1 mmol/L NADPH at 37° C. for 0 or 30 minutes (oxidative reaction). After reacting, 50 μL of the reaction solution was added to 100 μL of a solution of methanol/acetonitrile (1/1 (v/v)), mixed, and then centrifuged at 3000 rpm for 15 minutes. The test compound in the supernatant was quantitated with LC/MS/MS. The amount of the compound at a reaction time of 0 minute was defined as 100% and, based on that, the percentage of the test compound remained after reacting for 30 minutes was calculated.

Chain of PI3Kγ (P48736 whole entry, species assumed): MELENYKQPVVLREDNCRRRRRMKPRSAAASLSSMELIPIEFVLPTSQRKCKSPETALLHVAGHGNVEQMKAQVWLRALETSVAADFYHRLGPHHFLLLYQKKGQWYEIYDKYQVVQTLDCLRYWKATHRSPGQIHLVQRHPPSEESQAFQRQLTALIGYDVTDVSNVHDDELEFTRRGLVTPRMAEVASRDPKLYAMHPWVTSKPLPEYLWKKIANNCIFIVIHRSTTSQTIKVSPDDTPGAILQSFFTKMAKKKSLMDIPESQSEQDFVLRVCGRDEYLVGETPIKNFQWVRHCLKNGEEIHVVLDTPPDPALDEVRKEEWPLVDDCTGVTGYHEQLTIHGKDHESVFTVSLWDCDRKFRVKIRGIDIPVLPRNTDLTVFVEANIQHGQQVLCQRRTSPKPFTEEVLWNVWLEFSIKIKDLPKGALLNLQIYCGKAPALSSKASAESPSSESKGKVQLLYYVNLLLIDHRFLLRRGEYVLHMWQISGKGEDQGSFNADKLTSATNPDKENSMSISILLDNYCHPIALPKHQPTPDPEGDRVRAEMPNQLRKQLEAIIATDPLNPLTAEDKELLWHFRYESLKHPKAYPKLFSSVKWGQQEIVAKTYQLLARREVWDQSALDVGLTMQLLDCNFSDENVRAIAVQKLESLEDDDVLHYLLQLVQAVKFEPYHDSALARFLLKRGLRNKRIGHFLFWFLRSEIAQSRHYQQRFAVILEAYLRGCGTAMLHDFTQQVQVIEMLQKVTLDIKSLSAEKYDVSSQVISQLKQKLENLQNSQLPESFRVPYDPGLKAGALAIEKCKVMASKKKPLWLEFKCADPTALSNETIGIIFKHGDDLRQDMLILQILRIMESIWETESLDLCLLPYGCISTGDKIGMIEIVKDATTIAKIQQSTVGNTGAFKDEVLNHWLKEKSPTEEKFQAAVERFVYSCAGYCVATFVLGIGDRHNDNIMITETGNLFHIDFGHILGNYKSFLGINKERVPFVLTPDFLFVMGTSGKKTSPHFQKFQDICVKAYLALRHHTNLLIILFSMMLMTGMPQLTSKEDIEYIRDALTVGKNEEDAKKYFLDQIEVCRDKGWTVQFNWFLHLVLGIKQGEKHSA
T2 sequence (P08684 whole entry): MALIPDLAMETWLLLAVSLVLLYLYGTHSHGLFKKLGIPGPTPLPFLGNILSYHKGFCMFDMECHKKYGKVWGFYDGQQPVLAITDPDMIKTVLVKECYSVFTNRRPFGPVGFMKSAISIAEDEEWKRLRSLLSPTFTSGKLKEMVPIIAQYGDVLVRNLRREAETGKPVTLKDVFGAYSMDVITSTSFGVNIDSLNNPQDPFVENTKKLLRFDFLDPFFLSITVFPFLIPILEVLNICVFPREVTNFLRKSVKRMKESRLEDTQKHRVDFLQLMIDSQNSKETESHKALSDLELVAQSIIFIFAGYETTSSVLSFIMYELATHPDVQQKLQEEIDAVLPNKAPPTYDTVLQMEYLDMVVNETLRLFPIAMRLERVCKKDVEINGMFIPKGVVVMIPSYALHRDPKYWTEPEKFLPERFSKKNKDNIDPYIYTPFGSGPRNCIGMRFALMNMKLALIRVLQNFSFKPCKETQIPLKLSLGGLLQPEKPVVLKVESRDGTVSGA
T1 sequence (Q12809 whole entry): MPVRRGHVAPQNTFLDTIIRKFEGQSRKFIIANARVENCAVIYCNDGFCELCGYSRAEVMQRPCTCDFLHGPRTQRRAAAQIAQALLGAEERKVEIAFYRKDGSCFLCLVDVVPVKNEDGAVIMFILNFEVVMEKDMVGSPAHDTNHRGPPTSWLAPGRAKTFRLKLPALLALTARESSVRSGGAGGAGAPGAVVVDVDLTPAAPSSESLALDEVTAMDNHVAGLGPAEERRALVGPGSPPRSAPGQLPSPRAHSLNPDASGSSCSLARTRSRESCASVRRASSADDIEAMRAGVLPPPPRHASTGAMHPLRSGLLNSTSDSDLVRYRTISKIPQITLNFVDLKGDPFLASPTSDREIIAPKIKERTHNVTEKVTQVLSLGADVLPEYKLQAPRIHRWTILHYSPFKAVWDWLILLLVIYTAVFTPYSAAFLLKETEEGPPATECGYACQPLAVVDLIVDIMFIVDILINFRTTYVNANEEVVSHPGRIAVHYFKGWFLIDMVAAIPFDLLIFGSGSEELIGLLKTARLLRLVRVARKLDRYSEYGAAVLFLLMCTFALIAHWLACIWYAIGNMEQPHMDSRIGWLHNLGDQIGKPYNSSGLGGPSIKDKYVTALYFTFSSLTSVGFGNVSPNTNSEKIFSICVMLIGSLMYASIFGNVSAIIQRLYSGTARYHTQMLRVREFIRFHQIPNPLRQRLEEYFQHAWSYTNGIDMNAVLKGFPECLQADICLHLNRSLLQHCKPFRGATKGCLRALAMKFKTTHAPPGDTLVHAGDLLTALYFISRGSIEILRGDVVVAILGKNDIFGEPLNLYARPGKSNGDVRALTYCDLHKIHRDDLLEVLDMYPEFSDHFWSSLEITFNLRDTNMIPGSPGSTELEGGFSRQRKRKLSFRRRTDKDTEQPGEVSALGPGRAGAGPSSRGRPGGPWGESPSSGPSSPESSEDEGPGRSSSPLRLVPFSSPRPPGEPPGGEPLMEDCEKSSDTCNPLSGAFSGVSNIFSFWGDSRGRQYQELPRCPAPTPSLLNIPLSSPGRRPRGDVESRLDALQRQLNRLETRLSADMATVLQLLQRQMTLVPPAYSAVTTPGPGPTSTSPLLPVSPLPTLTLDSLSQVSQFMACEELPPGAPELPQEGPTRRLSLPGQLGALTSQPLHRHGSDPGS

Compound | inhibition at 10 µM (PI3Kγ) | inhibition at 10 min, 1 µM (hERG channel (IKr)) | MBI (CYP3A4) | hLMS_ox(at 0.5 μM) % [1]
COc1cc(N2CCc3nc(NC(=O)Nc4ccccc4C(=O)NC4CC4)sc3C2)nc(OC)n1 [Compound I-16] | 92% | 9.3% |  | 
COc1cc(N2CCc3nc(NC(=O)NC4=C(C(=O)NC(C)C)CCC4)sc3C2)nc(OC)n1 [Compound I-29] | ≥ 95% | 8.7% | (−) (When 3 μmol/L or less, the compound is shown as (−)) | 
COc1nc(N(C)C)cc(N2CCc3nc(NC(=O)Nc4ccccc4C(=O)NC(C)C)sc3C2)n1 [Compound I-41] |  | 5.6% |  | 
COc1cc(N2CCc3nc(NC(=O)Nc4ccccc4OC(C)C)sc3C2)nc(OC)n1 [Compound I-48] |  | 3.2% |  | 
COc1nc(Cl)cc(N2CCc3nc(NC(=O)Nc4ccccc4C(=O)NC(C)C)sc3C2)n1 [Compound I-53] |  | 5.1% | (−) (When 3 μmol/L or less, the compound is shown as (−)) | 
COc1cc(N2CCc3nc(NC(=O)Nc4ccccc4OCCC(C)C)sc3C2)nc(OC)n1 [Compound I-55] |  | 7.7% |  | 
CCNC(=O)c1ccccc1NC(=O)Nc1nc2c(s1)CN(c1cc(OC)nc(OC)n1)CC2 [Compound I-57] |  | 5.3% | (−) (When 3 μmol/L or less, the compound is shown as (−)) | 83.5%
COc1cc(N2CCc3nc(NC(=O)Nc4ccccc4C(=O)NC(C)C)sc3C2)cnc1OC [Compound I-80] |  | 5.5% |  | 82.1%
CCNC(=O)c1ccncc1NC(=O)Nc1nc2c(s1)CN(c1cc(Cl)nc(OC)n1)CC2 [Compound I-92] |  | 2.4% |  | 
CCNC(=O)c1ccccc1NC(=O)Nc1nc2c(s1)CN(c1cc(Cl)nc(OC)n1)CC2 [Compound I-93] | ≥ 95% | 6.8% | (−) (When 3 μmol/L or less, the compound is shown as (−)) | 
CCNC(=O)c1ccncc1NC(=O)Nc1nc2c(s1)CN(c1cc(OC)nc(OC)n1)CC2 [Compound I-94] | ≥ 95% | 6.8% | (−) (When 3 μmol/L or less, the compound is shown as (−)) | 
COc1nccc(N2CCc3nc(NC(=O)Nc4ccccc4C(=O)NC(C)C)sc3C2)n1 [Compound I-95] | ≥ 95% | 3.7% |  | 
COc1cc(N2CCc3nc(NC(=O)Nc4ccccc4C(=O)N[C@@H](C)CO)sc3C2)nc(OC)n1 [Compound I-101] | ≥ 95% | 9.6% |  | 91.9%
COc1cc(N2CCc3nc(NC(=O)Nc4ccccc4C(=O)N[C@H](C)CO)sc3C2)nc(OC)n1 [Compound I-102] | ≥ 95% | 8.8% |  | 84.2%
COc1cncc(-c2ccc3nc(NC(=O)Nc4ccccc4C(=O)NC(C)C)cn3n2)c1 [Compound I-111] |  | 2.4% | (−) (When 3 μmol/L or less, the compound is shown as (−)) | 
CCCCc1ccccc1NC(=O)Nc1nc2c(s1)CN(c1cc(OC)nc(OC)n1)CC2 [Compound I-150] |  | 3% |  | 
